Among the test systems are UACC-257; HCC 2998; SK-OV-3; 786-0; SF-268; HCT-116; NCI-H226; U-251; CAKI-1; SNB-19; IGROV-1; A549; NCI-H23; M14; SK-MEL-2; LOX IMVI; SK-MEL-28; SK-MEL-5.
Assay in all cases: NCI anticancer screen, dose series, 48 h

The values that follow come from ChEMBL document CHEMBL1201862, “PubChem BioAssay data set” (2004).

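Where inhibition never reached the appropriate level, the endpoint shown equals the highest concentration tested. Otherwise, values were interpolated linearly from a five-concentration, 48-hour dose response in 96-well plates. GI50 = concentration required for 50% inhibition of growth.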 The source made the active and inactive calls. Cut-off read from the data, not from the text of the source: active = GI50 up to about 1.1 µM and inactive = higher.

In the case of `O=c1c2ccccc2[nH]c2c(O)ccc(O)c12`, the GI50 in the assay on UACC-257 was 18.1 µM (inactive); in the assay with HCC 2998 it was > 100 µM (inactive); in the assay on SK-OV-3, 25.7 µM (inactive); in the assay on 786-0 it was 18.8 µM (inactive); with SF-268, 25.4 µM (inactive); in the assay with HCT-116, 20.7 µM (inactive). The GI50 with NCI-H226 is 25.6 µM (inactive); in the assay with U-251, 15.1 µM (inactive); in the assay on CAKI-1 it was 13.9 µM (inactive); with SNB-19 it was 38.7 µM (inactive); in the assay on IGROV-1, 15.1 µM (inactive); in the assay on A549, 36.2 µM (inactive). In addition, the GI50 with NCI-H23 is 27.4 µM (inactive); in the assay with M14 it was 15.9 µM (inactive); with SK-MEL-2, 29.4 µM (inactive); in the assay with LOX IMVI it was 17.8 µM (inactive); with SK-MEL-28, 18.8 µM (inactive).

With `O=C(CCc1cc(-c2ccco2)n(-c2ccc([N+](=O)[O-])cc2[N+](=O)[O-])n1)Nc1ccccc1`, the GI50 in the assay on SK-MEL-5, in the assay on UACC-257, in the assay on HCC 2998, with SK-OV-3, in the assay with 786-0 and in the assay with SF-268 was > 100 µM (inactive) in each case. In addition, the GI50 in the assay with HCT-116, with NCI-H226, in the assay with U-251, in the assay on CAKI-1, in the assay with SNB-19 and with IGROV-1 was > 100 µM (inactive) in each case. In addition, the GI50 with A549, in the assay on NCI-H23, in the assay with M14, in the assay with SK-MEL-2 and in the assay with SK-MEL-28 was > 100 µM (inactive) each time.

Turning to `O=C1/C(=C/c2ccc(Cl)cc2)CCC1CCN1CCOCC1` (stereo not drawn), the GI50 with SK-MEL-5 was 55.5 µM (inactive); in the assay with UACC-257, > 100 µM (inactive); in the assay on HCC 2998 it was 46.9 µM (inactive); with 786-0, 72.3 µM (inactive); with SF-268 it was 54.3 µM (inactive); in the assay on HCT-116, 53 µM (inactive). In addition, the GI50 in the assay on NCI-H226 was > 100 µM (inactive); in the assay on CAKI-1 it was 76.2 µM (inactive); in the assay with SNB-19, > 100 µM (inactive); in the assay with IGROV-1, > 100 µM (inactive); in the assay with A549 it was > 100 µM (inactive); in the assay on NCI-H23, 86.1 µM (inactive). Also, the GI50 with M14 was > 100 µM (inactive); in the assay on SK-MEL-2, > 100 µM (inactive); in the assay on LOX IMVI, 39.8 µM (inactive); with SK-MEL-28 it was > 100 µM (inactive).

As for `Cc1cc(C)c(C(=O)OC(c2ccccc2)C(c2ccccc2)N2CCOCC2)c(C)c1` (stereo not drawn), the GI50 in the assay on UACC-257, with HCC 2998, in the assay on SK-OV-3, in the assay on 786-0, in the assay with SF-268 and in the assay with HCT-116 was > 100 µM (inactive) throughout. For the same molecule, the GI50 in the assay on NCI-H226, in the assay with U-251, in the assay with CAKI-1, with SNB-19, with IGROV-1 and in the assay with A549 was > 100 µM (inactive) throughout. For the same molecule, the GI50 in the assay on NCI-H23, with M14, in the assay with SK-MEL-2, in the assay on LOX IMVI and in the assay with SK-MEL-28 was > 100 µM (inactive) in each case.

On to `O=C1OC(c2ccccc2)=N/C1=C/NC(Cc1c[nH]cn1)C(=O)O` (stereo not drawn), for which the GI50 with SK-MEL-5, in the assay on UACC-257, in the assay with HCC 2998, with SK-OV-3, with 786-0 and in the assay on SF-268 was > 100 µM (inactive) each time. In addition, the GI50 in the assay on HCT-116, with NCI-H226, in the assay with U-251, with SNB-19, in the assay on IGROV-1 and in the assay with A549 was > 100 µM (inactive) in each case. In addition, the GI50 with NCI-H23, in the assay with M14, with SK-MEL-2, in the assay on LOX IMVI and in the assay with SK-MEL-28 was > 100 µM (inactive) throughout.

As for `O=C1CCC2(c3ccc(F)cc3)Nc3ncccc3N12` (stereo not drawn), the GI50 with SK-MEL-5, in the assay on UACC-257, with HCC 2998, with 786-0, with SF-268 and in the assay on NCI-H226 was > 100 µM (inactive) each time. Further, the GI50 in the assay with U-251, in the assay on CAKI-1, in the assay on IGROV-1, in the assay with A549, in the assay with NCI-H23 and in the assay on M14 was > 100 µM (inactive) throughout. For the same molecule, the GI50 with SK-MEL-2, in the assay with LOX IMVI and in the assay with SK-MEL-28 was > 100 µM (inactive) in each case.

Turning to `CC1=C(O)C(=O)C2C(=O)C1C(C)C2c1ccc(Cl)cc1` (stereo not drawn), the GI50 in the assay with SK-MEL-5, in the assay on HCC 2998, in the assay on SK-OV-3, with 786-0, in the assay with SF-268 and with NCI-H226 was > 100 µM (inactive) in each case. Also, the GI50 in the assay on U-251, with CAKI-1, in the assay with SNB-19, in the assay on IGROV-1, in the assay with A549 and in the assay on NCI-H23 was > 100 µM (inactive) throughout. Also, the GI50 with M14, with SK-MEL-2, in the assay on LOX IMVI and in the assay on SK-MEL-28 was > 100 µM (inactive) in each case.

Turning to `Cc1cc(=O)n(-c2cc3cccccc-3n2)[nH]1`, the GI50 in the assay with SK-MEL-5 is 2.05 µM (inactive); in the assay with UACC-257 it was 5.15 µM (inactive); with HCC 2998, 12.1 µM (inactive); with SK-OV-3, 6.31 µM (inactive); in the assay on 786-0 it was 4.58 µM (inactive); in the assay on HCT-116, 2.16 µM (inactive). Besides, the GI50 was 12.1 µM (inactive) in the assay on NCI-H226; 2.04 µM (inactive) in the assay on U-251; 43.6 µM (inactive) in the assay on SNB-19; 2.78 µM (inactive) in the assay with IGROV-1; 12.4 µM (inactive) in the assay on A549; 4.8 µM (inactive) in the assay with NCI-H23. Also, the GI50 with M14 is 4.42 µM (inactive); with LOX IMVI it was 9.64 µM (inactive); in the assay on SK-MEL-28, 4.67 µM (inactive).

For `O=C(CC1Sc2ccccc2NC1=O)Nc1cccc(Cl)c1` (stereo not drawn), the GI50 in the assay with SK-MEL-5 is 40.1 µM (inactive); in the assay with UACC-257 it was > 100 µM (inactive); with HCC 2998, 89.3 µM (inactive); with 786-0, 39.4 µM (inactive); in the assay on SF-268, 34.9 µM (inactive); with HCT-116, 68.5 µM (inactive). Moreover, the GI50 in the assay on NCI-H226 is 26.8 µM (inactive); with U-251, 30.4 µM (inactive); with CAKI-1, 33 µM (inactive); in the assay with SNB-19, 46.9 µM (inactive); in the assay on IGROV-1, 40.9 µM (inactive); with A549, 43.8 µM (inactive). Moreover, the GI50 in the assay on NCI-H23 is 55.5 µM (inactive); with M14 it was 38.3 µM (inactive); with SK-MEL-2, 39 µM (inactive); with LOX IMVI, 20.3 µM (inactive); with SK-MEL-28, 24 µM (inactive).

In the case of `COc1ccc(/C(Cl)=C(\C=O)c2ccc([N+](=O)[O-])cc2)cc1`, the GI50 in the assay on SK-MEL-5 was 13.2 µM (inactive); in the assay with UACC-257, 10.1 µM (inactive); in the assay with HCC 2998, 21 µM (inactive); with SK-OV-3, 33 µM (inactive); with 786-0, 13.3 µM (inactive); in the assay on SF-268, 20.5 µM (inactive). Moreover, the GI50 with NCI-H226 was 14.1 µM (inactive); in the assay on U-251 it was 10.5 µM (inactive); in the assay on CAKI-1, 11.1 µM (inactive); in the assay with SNB-19 it was 18.5 µM (inactive); in the assay on IGROV-1, 22.4 µM (inactive); with A549, 17.7 µM (inactive). The GI50 with NCI-H23 was 14 µM (inactive); in the assay with M14 it was 11.8 µM (inactive); in the assay on SK-MEL-2 it was 6.98 µM (inactive); in the assay with LOX IMVI it was 3.49 µM (inactive); in the assay on SK-MEL-28, 23 µM (inactive).

In the case of `NC1CCC[C@H]1O` (stereo partly drawn), the GI50 in the assay with SK-MEL-5, in the assay with UACC-257, with HCC 2998, in the assay on SK-OV-3, in the assay on 786-0 and in the assay on SF-268 was > 100 µM (inactive) in each case. Further, the GI50 in the assay on HCT-116, in the assay on NCI-H226, in the assay with U-251, in the assay on SNB-19, in the assay on IGROV-1 and with A549 was > 100 µM (inactive) each time. Further, the GI50 with NCI-H23, in the assay with M14, in the assay with SK-MEL-2, in the assay with LOX IMVI and with SK-MEL-28 was > 100 µM (inactive) throughout.

With `COc1cccc2c1C(=O)c1c(O)c3c(c(O)c1C2=O)C[C@@](O)(C(=O)CO)CC3OC1CC(NCCOCC(OC(C)=O)OC(C)=O)C(O)C(C)O1` (stereo partly drawn), the GI50 with SK-MEL-5, with UACC-257, with HCC 2998, with SK-OV-3, in the assay on 786-0 and in the assay with SF-268 was < 0.01 µM (active) each time. For the same molecule, the GI50 in the assay on NCI-H226 is < 0.01 µM (active); in the assay on U-251, 0.00925 µM (active); in the assay with CAKI-1, 0.01 µM (active); in the assay on SNB-19, 0.00782 µM (active); with IGROV-1, < 0.01 µM (active); with A549, < 0.01 µM (active). In addition, the GI50 in the assay with NCI-H23 was < 0.01 µM (active); with M14, < 0.01 µM (active); in the assay on SK-MEL-2, < 0.01 µM (active); in the assay on LOX IMVI, 0.00598 µM (active); in the assay with SK-MEL-28, < 0.01 µM (active).
